Results taken from patent publication US20110190235A1, “BORON-CONTAINING SMALL MOLECULES AS ANTIPROTOZOAL AGENTS” (Anacor Pharmaceuticals, Inc., priority 2009, published 2011).
In brackets after ≈: the same amount, converted by molar mass. Read-outs that look alike come from different tables or passages of the source.

Key:
[1] = system: bloodstream-form trypanosome T. brucei brucei 427 strain; test: Trypanosoma brucei brucei high-throughput in vitro drug sensitivity assay (resazurin); format: cell-based; details: for Selectivity Index (L929 IC50 / T. b. brucei IC50): T. b. brucei vs L929; for IC50: Trypanosoma brucei, 72 hrs incubation
[2] = L929 cytotoxicity evaluation (resazurin); format: cell-based; details: mouse, L929 mouse fibroblast cells; 72 hrs incubation; read-out: Cytotox L-929 IC50
Procedure: For evaluation of compound effects on mammalian cells, L929 mouse fibroblast cells were used. Cells were maintained as adherent cultures in T-25 vented cap flasks in a humidified incubator at 37° C. in the presence of 5% CO2. Culture media was D-MEM supplemented with 10% fetal bovine serum and 1% penicillin/streptomycin. L929 cells were maintained below confluent levels by sub-culturing at 1:10 dilution twice weekly using 0.05% trypsin for detachment.
Sub-confluent L929 cells were trypsinized, resuspended in fresh media and 10 uL was counted using hemocytometer to determine cell concentration. Cells were diluted to 1×10^4/mL in DMEM, dispensed (100 uL) into 96-well plates using a Multidrop 384 dispenser and allowed to attach overnight. Spent media was replaced with 99.5 uL fresh D-MEM and compounds to be tested were serially diluted in DMSO and 0.5 uL added using a Biomek NX liquid handler. Plates were incubated with compounds for 72 hrs at 37° C. with 5% CO2. Resazurin (20 uL of 12.5 mg/ml stock) from Sigma-Aldrich was added to each well and plates were incubated for an additional 3-4 hrs. Assay plates were read using an EnVision plate reader at an excitation wavelength of 544 nm and emission of 590 nm. Single data points were used to generate sigmoidal dose response curves and determine IC50 values using XLfit curve fitting software from IDBS (Guildford, UK).

SMILES | Selectivity Index (L929 IC50 / T. b. brucei IC50) [1] | IC50 ([1]; read-out: T. b. brucei IC50) [nM] | IC50 ([1]; read-out: T.b. brucei IC50) [µg/mL] | IC50 at 72 h [2] [µg/mL]
COc1cccc(C(=O)Nc2ccc3c(c2)B(O)OC3C)c1 (centres unmarked) [compound 6, N-(1-Hydroxy-3-methyl-1,3-dihydro-benzo[c][1,2]oxaborol-6-yl)-3-methoxy-benzamide] | >217 | 155 | 0.046 | > 10
CC1OB(O)c2cc(NC(=O)c3cccc(F)c3)ccc21 (centres unmarked) [compound 10, 3-Fluoro-N-(1-hydroxy-3-methyl-1,3-dihydro-benzo[c][1,2]oxaborol-6-yl)-benzamide] | >207 | 130 | 0.037 | > 10
CC1OB(O)c2cc(NC(=O)c3cccc(Cl)c3)ccc21 (centres unmarked) [compound 11, 3-Chloro-N-(1-hydroxy-3-methyl-1,3-dihydro-benzo[c][1,2]oxaborol-6-yl)-benzamide] | 168 | 119 | 0.036 | 6.06 (≈ 20.1 µM)
CC1OB(O)c2cc(NC(=O)c3ccccc3I)ccc21 (centres unmarked) [compound 15, N-(1-Hydroxy-3-methyl-1,3-dihydro-benzo[c][1,2]oxaborol-6-yl)-2-iodo-benzamide] | 36 | 173 | 0.068 | 2.45 (≈ 6.23 µM)
CC1OB(O)c2cc(NC(=O)c3ccc(F)cc3Br)ccc21 (centres unmarked) [compound 16, 2-Bromo-4-fluoro-N-(1-hydroxy-3-methyl-1,3-dihydro-benzo[c][1,2]oxaborol-6-yl)-benzamide] | 29 | 294 | 0.107 | 3.06 (≈ 8.41 µM)
O=C(Nc1ccc2c(c1)B(O)OC2C1CCCC1)c1ccccc1Cl (centres unmarked) [compound 18, 2-Chloro-N-(3-cyclopentyl-1-hydroxy-1,3-dihydro-benzo[c][1,2]oxaborol-6-yl)-benzamide] | 2 | 11900 | 4.22 | 9.29 (≈ 26.1 µM)
O=C(Nc1ccc2c(c1)B(O)OC2C1CCCC1)c1ccc(F)cc1 (centres unmarked) [compound 20, N-(3-Cyclopentyl-1-hydroxy-1,3-dihydro-benzo[c][1,2]oxaborol-6-yl)-4-fluoro-benzamide] |  | > 14500 | > 5 | > 10
CC(=O)Nc1ccc2c(c1)B(O)OC2C1CCCC1 (centres unmarked) [compound 21, N-(3-Cyclopentyl-1-hydroxy-1,3-dihydro-benzo[c][1,2]oxaborol-6-yl)-acetamide] |  | > 19300 | > 5 | > 10
CC(C)CC1OB(O)c2cc(NC(=O)c3ccccc3C(F)(F)F)ccc21 (centres unmarked) [compound 22, N-(1-Hydroxy-3-isobutyl-1,3-dihydro-benzo[c][1,2]oxaborol-6-yl)-2-trifluoromethyl-benzamide] | >12 | 2300 | 0.866 | > 10
CC(C)CC1OB(O)c2cc(NC(=O)c3ccc(F)cc3)ccc21 (centres unmarked) [compound 24, 4-Fluoro-N-(1-hydroxy-3-isobutyl-1,3-dihydro-benzo[c][1,2]oxaborol-6-yl)-benzamide] |  | > 15300 | > 5 | > 10
CC(C)CC1OB(O)c2cc(NC(=O)c3ccccc3Cl)ccc21 (centres unmarked) [compound 25, 2-Chloro-N-(1-hydroxy-3-isobutyl-1,3-dihydro-benzo[c][1,2]oxaborol-6-yl)-benzamide] |  | > 14600 | > 5 | > 10
Cc1ccccc1C(=O)Nc1ccc2c(c1)B(O)OC2(C)C [compound 27, N-(1-Hydroxy-3,3-dimethyl-1,3-dihydro-benzo[c][1,2]oxaborol-6-yl)-2-methylbenzamide] |  |  | 2.24 | > 10
Cc1cccc(C(=O)Nc2ccc3c(c2)B(O)OC3(C)C)c1 [compound 28, N-(1-Hydroxy-3,3-dimethyl-1,3-dihydro-benzo[c][1,2]oxaborol-6-yl)-3-methyl-benzamide] |  |  | 3.17 | > 10
